Results: patent US7186831B2, “5-halo-2-alkyl[1,2,4]triazolo[1,5-a]pyrimidin-7-amines” (priority 2001, dated 2007)

Test: log P by HPLC
Format: physicochemical
[1] = EEC directive 79/831 Annex V. A8 by HPLC (gradient method, acetonitrile/0.1% aqueous phosphoric acid)
[2] = HPLC, gradient method, acetonitrile/0.1% aqueous phosphoric acid, EEC directive 79/831 Annex V. A8

SMILES: Clc1ccccc1-c1c(Cl)nc2nc(C3CC3)nn2c1N1CCCCN1 [compound 488]
- logP [1]: 3.39

SMILES: C=C(C)CN(CC)c1c(-c2ccc(F)cc2F)c(Cl)nc2nc(C3CC3)nn12 [compound 491]
- logP [1]: 4.37

SMILES: CC(C)CNc1c(-c2ccccc2Cl)c(Cl)nc2nc(C3CC3)nn12 [compound 492]
- logP [1]: 3.76

SMILES: Clc1ccccc1-c1c(Cl)nc2nc(C3CC3)nn2c1N1CCCCC1 [compound 493]
- logP [1]: 4.27

SMILES: CCC(C)Nc1c(-c2ccccc2Cl)c(Cl)nc2nc(C3CC3)nn12 (stereo not drawn) [compound 494]
- logP [1]: 3.76

SMILES: C=C(C)CNc1c(-c2ccccc2Cl)c(Cl)nc2nc(C3CC3)nn12 [compound 495]
- logP [1]: 3.41

SMILES: C=C(C)CN(C)c1c(-c2ccccc2Cl)c(Cl)nc2nc(C3CC3)nn12 [compound 496]
- logP [1]: 4.32

SMILES: CC(C)CN(C)c1c(-c2ccccc2Cl)c(Cl)nc2nc(C3CC3)nn12 [compound 497]
- logP [1]: 4.41

SMILES: CC1CCCN1c1c(-c2ccccc2Cl)c(Cl)nc2nc(C3CC3)nn12 (stereo not drawn) [compound 498]
- logP [1]: 3.99

SMILES: CC1CCCCN1c1c(-c2ccccc2Cl)c(Cl)nc2nc(C3CC3)nn12 (stereo not drawn) [compound 499]
- logP [1]: 4.61

SMILES: FC(F)(F)CNc1c(-c2ccccc2Cl)c(Cl)nc2nc(C3CC3)nn12 [compound 500]
- logP [1]: 3.22

SMILES: FC(F)(F)C1CCCN1c1c(-c2ccccc2Cl)c(Cl)nc2nc(C3CC3)nn12 (stereo not drawn) [compound 501]
- logP [1]: 4.41

SMILES: Cc1nc2nc(Cl)c(-c3c(F)cc(F)cc3F)c(N(C)CC3CC3(Cl)Cl)n2n1 (stereo not drawn) [compound 502]
- logP [1]: 3.68

SMILES: CC(C)Nc1c(-c2ccc(F)cc2Cl)c(Cl)nc2nc(C3CC3)nn12 [compound 503]
- logP [1]: 3.5

SMILES: Fc1ccc(-c2c(Cl)nc3nc(C4CC4)nn3c2N2CCCCN2)c(Cl)c1 [compound 504]
- logP [1]: 3.58

SMILES: Cc1nc2nc(Cl)c(-c3c(F)cc(F)cc3F)c(NC(C)C(C)C)n2n1 (stereo not drawn) [compound 506]
- logP [1]: 3.35

SMILES: CN(CC1CC1(Cl)Cl)c1c(-c2ccc(F)cc2F)c(Cl)nc2nc(C3CC3)nn12 (stereo not drawn) [compound 507]
- logP [1]: 4.18

SMILES: CN(CC1CC1(Cl)Cl)c1c(-c2ccccc2Cl)c(Cl)nc2nc(C3CC3)nn12 (stereo not drawn) [compound 508]
- logP [1]: 4.29

SMILES: CN(CC1CC1(Cl)Cl)c1c(-c2c(F)cc(F)cc2F)c(Cl)nc2nc(C3CC3)nn12 (stereo not drawn) [compound 509]
- logP [1]: 4.26

SMILES: CCC1=CCN(c2c(-c3ccc(F)cc3F)c(Cl)nc3nc(C4CC4)nn23)CC1 [compound 511]
- logP [1]: 4.59

SMILES: CC1=CCCN(c2c(-c3ccc(F)cc3F)c(Cl)nc3nc(C4CC4)nn23)C1 [compound 512]
- logP [1]: 4.14

SMILES: Fc1ccc(-c2c(Cl)nc3nc(C4CC4)nn3c2N2CCC(F)CC2)c(F)c1 [compound 513]
- logP [1]: 3.45

SMILES: CC(C)(C)OC(=O)NC1CCN(c2c(-c3ccc(F)cc3F)c(Cl)nc3nc(C4CC4)nn23)CC1 [compound 514]
- logP [1]: 3.78

SMILES: Fc1ccc(-c2c(Cl)nc3nc(C4CC4)nn3c2N2CCC(C(F)(F)F)CC2)c(F)c1 [compound 515]
- logP [1]: 4.07

SMILES: CC(=O)NC1CCN(c2c(-c3ccc(F)cc3F)c(Cl)nc3nc(C4CC4)nn23)CC1 [compound 516]
- logP [1]: 2.2

SMILES: Fc1ccc(-c2c(Cl)nc3nc(C4CC4)nn3c2N2CCCCC2)c(F)c1 [compound 517]
- logP [1]: 4.03

SMILES: Fc1ccc(-c2c(Cl)nc3nc(C4CC4)nn3c2N2CCOCC2)c(F)c1 [compound 518]
- logP [1]: 2.85

SMILES: Fc1ccc(-c2c(Cl)nc3nc(C4CC4)nn3c2N2CCSCC2)c(F)c1 [compound 519]
- logP [1]: 3.58

SMILES: Cc1ccc(Nc2c(-c3ccc(F)cc3F)c(Cl)nc3nc(C4CC4)nn23)cc1 [compound 521]
- logP [1]: 3.6

SMILES: Fc1ccc(-c2c(Cl)nc3nc(C4CC4)nn3c2N2CCc3ccccc3C2)c(F)c1 [compound 522]
- logP [1]: 3.87

SMILES: Cc1nc2nc(Cl)c(-c3c(F)cc(F)cc3F)c(NC(C)C(C)C)n2n1 (stereo not drawn) [compound 523]
- logP [1]: 3.38

SMILES: Cc1nc2nc(Cl)c(-c3c(F)cccc3F)c(N3CCCCO3)n2n1 [compound 524]
- logP [2]: 2.84

SMILES: CC(C)CNc1c(-c2ccc(F)cc2F)c(Cl)nc2nc(C(F)(F)F)nn12 [compound 525]
- logP [2]: 4.03

SMILES: CCCCNc1c(-c2ccc(F)cc2F)c(Cl)nc2nc(C(F)(F)F)nn12 [compound 526]
- logP [2]: 4.07

SMILES: CC(C)(C)CNc1c(-c2ccc(F)cc2F)c(Cl)nc2nc(C(F)(F)F)nn12 [compound 527]
- logP [2]: 4.4

SMILES: CCC(C)Nc1c(-c2ccc(F)cc2F)c(Cl)nc2nc(C(F)(F)F)nn12 (stereo not drawn) [compound 528]
- logP [2]: 4.03

SMILES: Fc1ccc(-c2c(Cl)nc3nc(C(F)(F)F)nn3c2NCCC(F)(F)F)c(F)c1 [compound 529]
- logP [2]: 3.7

SMILES: Fc1ccc(-c2c(Cl)nc3nc(C(F)(F)F)nn3c2NC2CCCC2)c(F)c1 [compound 530]
- logP [2]: 4.21

SMILES: Fc1ccc(-c2c(Cl)nc3nc(C(F)(F)F)nn3c2NC2CC2)c(F)c1 [compound 531]
- logP [2]: 3.49

SMILES: Fc1ccc(-c2c(Cl)nc3nc(C(F)(F)F)nn3c2NCC(F)(F)F)c(F)c1 [compound 532]
- logP [2]: 3.58

SMILES: Fc1ccc(-c2c(Cl)nc3nc(C(F)(F)F)nn3c2NCC2CC2)c(F)c1 [compound 533]
- logP [2]: 3.8

SMILES: C=C(C)CNc1c(-c2ccc(F)cc2F)c(Cl)nc2nc(C(F)(F)F)nn12 [compound 534]
- logP [2]: 3.75

SMILES: CC(C)(C)Nc1c(-c2ccc(F)cc2F)c(Cl)nc2nc(C(F)(F)F)nn12 [compound 535]
- logP [2]: 4.19

SMILES: Fc1ccc(-c2c(Cl)nc3nc(C(F)(F)F)nn3c2NC2CCCC(C(F)(F)F)C2)c(F)c1 (stereo not drawn) [compound 536]
- logP [2]: 4.44

SMILES: Fc1ccc(-c2c(Cl)nc3nc(C(F)(F)F)nn3c2NC2CCC(C(F)(F)F)CC2)c(F)c1 (stereo not drawn) [compound 537]
- logP [2]: 4.43

SMILES: CN(C)CCN(C)c1c(-c2ccc(F)cc2F)c(Cl)nc2nc(C(F)(F)F)nn12 [compound 538]
- logP [2]: 1.77

SMILES: C#CCN(C)c1c(-c2ccc(F)cc2F)c(Cl)nc2nc(C(F)(F)F)nn12 [compound 539]
- logP [2]: 3.65

SMILES: CN(CC1OCCO1)c1c(-c2ccc(F)cc2F)c(Cl)nc2nc(C(F)(F)F)nn12 [compound 540]
- logP [2]: 3.62

SMILES: C=CCN(C)c1c(-c2ccc(F)cc2F)c(Cl)nc2nc(C(F)(F)F)nn12 [compound 541]
- logP [2]: 4.09

SMILES: CN(CCC#N)c1c(-c2ccc(F)cc2F)c(Cl)nc2nc(C(F)(F)F)nn12 [compound 542]
- logP [2]: 3.19

SMILES: CN(Cc1ccco1)c1c(-c2ccc(F)cc2F)c(Cl)nc2nc(C(F)(F)F)nn12 [compound 543]
- logP [2]: 4.11

SMILES: CC(C)CN(C)c1c(-c2ccc(F)cc2F)c(Cl)nc2nc(C(F)(F)F)nn12 [compound 544]
- logP [2]: 4.54

SMILES: COCCN(C)c1c(-c2ccc(F)cc2F)c(Cl)nc2nc(C(F)(F)F)nn12 [compound 545]
- logP [2]: 3.73

SMILES: C=C(C)CN(C)c1c(-c2ccc(F)cc2F)c(Cl)nc2nc(C(F)(F)F)nn12 [compound 546]
- logP [2]: 4.44

SMILES: CCN(CCN(C)C)c1c(-c2ccc(F)cc2F)c(Cl)nc2nc(C(F)(F)F)nn12 [compound 547]
- logP [2]: 1.91

SMILES: C=CCN(CC)c1c(-c2ccc(F)cc2F)c(Cl)nc2nc(C(F)(F)F)nn12 [compound 548]
- logP [2]: 4.4

SMILES: CCN(Cc1ccco1)c1c(-c2ccc(F)cc2F)c(Cl)nc2nc(C(F)(F)F)nn12 [compound 549]
- logP [2]: 4.42

SMILES: CCN(CCC#N)c1c(-c2ccc(F)cc2F)c(Cl)nc2nc(C(F)(F)F)nn12 [compound 550]
- logP [2]: 3.46

SMILES: CCOC(=O)CN(CC)c1c(-c2ccc(F)cc2F)c(Cl)nc2nc(C(F)(F)F)nn12 [compound 551]
- logP [2]: 4.05

SMILES: CCCN(CC1CCCO1)c1c(-c2ccc(F)cc2F)c(Cl)nc2nc(C(F)(F)F)nn12 (stereo not drawn) [compound 552]
- logP [2]: 4.77

SMILES: CCCN(CCOC)c1c(-c2ccc(F)cc2F)c(Cl)nc2nc(C(F)(F)F)nn12 [compound 553]
- logP [2]: 4.39

SMILES: CCOC(=O)CN(c1c(-c2ccc(F)cc2F)c(Cl)nc2nc(C(F)(F)F)nn12)C1CC1 [compound 554]
- logP [2]: 4.28

SMILES: OC1CCN(c2c(-c3ccc(F)cc3F)c(Cl)nc3nc(C(F)(F)F)nn23)C1 (stereo not drawn) [compound 555]
- logP [2]: 2.76

SMILES: Fc1ccc(-c2c(Cl)nc3nc(C(F)(F)F)nn3c2NC2CCCCC2)c(F)c1 [compound 556]
- logP [2]: 4.47

SMILES: CC(Nc1c(-c2ccc(F)cc2F)c(Cl)nc2nc(C(F)(F)F)nn12)C1CCCCC1 (stereo not drawn) [compound 557]
- logP [2]: 5.12

SMILES: CCN(CCOC)c1c(-c2ccc(F)cc2F)c(Cl)nc2nc(C(F)(F)F)nn12 [compound 558]
- logP [2]: 4.03

SMILES: CCCCNc1c(-c2c(F)cccc2F)c(Cl)nc2nc(C)nn12 [compound 560]
- logP [2]: 2.89

SMILES: Cc1nc2nc(Cl)c(-c3c(F)cccc3F)c(N(C)CCN(C)C)n2n1 [compound 561]
- logP [2]: 1.28

SMILES: CCOC(=O)CN(C)c1c(-c2c(F)cccc2F)c(Cl)nc2nc(C)nn12 [compound 562]
- logP [2]: 2.62

SMILES: Cc1nc2nc(Cl)c(-c3c(F)cccc3F)c(N(C)CCC#N)n2n1 [compound 563]
- logP [2]: 2.17

SMILES: Cc1nc2nc(Cl)c(-c3c(F)cccc3F)c(N(C)CC#N)n2n1 [compound 564]
- logP [2]: 2.18

SMILES: COC(=O)CN(C)c1c(-c2c(F)cccc2F)c(Cl)nc2nc(C)nn12 [compound 565]
- logP [2]: 2.32

SMILES: Cc1nc2nc(Cl)c(-c3c(F)cccc3F)c(N(C)Cc3ccco3)n2n1 [compound 566]
- logP [2]: 2.97

SMILES: CCN(CCN(C)C)c1c(-c2c(F)cccc2F)c(Cl)nc2nc(C)nn12 [compound 567]
- logP [2]: 1.46

SMILES: C=CCN(CC)c1c(-c2c(F)cccc2F)c(Cl)nc2nc(C)nn12 [compound 568]
- logP [2]: 3.3

SMILES: CCN(CCC#N)c1c(-c2c(F)cccc2F)c(Cl)nc2nc(C)nn12 [compound 569]
- logP [2]: 2.41

SMILES: CCCN(Cc1cccs1)c1c(-c2c(F)cccc2F)c(Cl)nc2nc(C)nn12 [compound 570]
- logP [2]: 3.96

SMILES: Cc1nc2nc(Cl)c(-c3c(F)cccc3F)c(N(CCN)C(C)C)n2n1 [compound 571]
- logP [2]: 1.28

SMILES: Cc1nc2nc(Cl)c(-c3c(F)cc(F)cc3F)c(N3CCCCO3)n2n1 [compound 574]
- logP [2]: 3.07

SMILES: Cc1nc2nc(Cl)c(-c3ccc(F)cc3F)c(N3CCCCO3)n2n1 [compound 576]
- logP [2]: 2.95

SMILES: Cc1nc2nc(Cl)c(-c3c(F)cccc3F)c(N3OCCC3C)n2n1 (stereo not drawn) [compound 578]
- logP [2]: 2.61
